# Test system: Pyrenophora teres
# Assay: activity against net blotch of barley caused by Pyrenophora teres, 1 day protective application
# Assay type: in vivo
# Settings: individual active compound, 5 ppm in the spray liquor, barley seedlings cultivar Hanna, assessed after 6 days
# Experimental: The active compounds were prepared separately as a stock solution comprising 25 mg of active compound which was made up to 10 ml using a mixture of acetone and/or DMSO and the emulsifier Uniperol® EL (wetting agent having emulsifying and dispersing action based on ethoxylated alkylphenols) in a volume ratio solvent:emulsifier of 99:1. The mixture was then made up with water to 100 ml. The active compounds or mixtures were mixed or diluted with water to the desired concentration.
# Use example—activity against net blotch of barley caused by Pyrenophora teres, 1 day protective application
# Leaves of potted barley seedlings of the cultivar “Hanna” were sprayed to runoff point with an aqueous suspension having the concentration of active compound stated below. 24 hours after the spray coating had dried on, the test plants were inoculated blotch pathogen. […] After 6 days, the extent of the development of the disease was determined visually in % infection of the entire leaf area.
# The visually determined values for the percentages of infected leaf areas were converted into efficacies in % of the untreated control:
# The efficacy (E) is calculated as follows using Abbot's formula: E=(1−α/β)·100 • α corresponds to the fungal infection of the treated plants in % and • β corresponds to the fungal infection of the untreated (control) plants in % […]
structure (smiles),measurement,value
"CC1CCN(c2c(-c3c(F)cc(F)cc3F)c(Cl)nc3ncnn23)CC1 [I, 5-chloro-7-(4-methylpiperidin-1-yl)-6-(2,4,6-trifluorophenyl)[1,2,4]tri-azolo[1,5-a]pyrimidine]",Efficacy in % of the untreated control,72%

# — US20070197556A1, “Fungicidal Mixtures” (priority 2004, published 2007)
